Values joined by “and” are separate entries in the source; they are usually repeats but may differ in a detail not shown here. Equal entries are not always repeated.
Assays:
Assay type in all cases: functional, Homo sapiens
Parameters in all cases: dose or concentration left out as unconfirmed
Colon cancer organoid [1] = experiment: Identification of compartment-specific drug sensitivities in O06 CRC organoid-stroma F06 CAF co-cultures. Organoid is transduced with Lucferase2-P2A-EGFP lentivirus, fibroblast with Renilla-dsRed lentivirus. Dual-Glo Luciferase assay is used to report viability data.
Colon cancer organoid [2] = experiment: Identification of compartment-specific drug sensitivities in O14 CRC organoid-stroma F14 CAF co-cultures. Organoid is transduced with Lucferase2-P2A-EGFP lentivirus, fibroblast with Renilla-dsRed lentivirus. Dual-Glo Luciferase assay is used to report viability data.
Colon cancer organoid [3] = experiment: Identification of compartment-specific drug sensitivities in O20 CRC organoid-stroma F20 CAF co-cultures. Organoid is transduced with Lucferase2-P2A-EGFP lentivirus, fibroblast with Renilla-dsRed lentivirus. Dual-Glo Luciferase assay is used to report viability data.
[4] = Transduced with Lucferase2-P2A-EGFP lentivirus
[5] = Transduced with Renilla-dsRed lentivirus

SMILES	Cell Viability (Colon cancer organoid [1]; [4])	Cell Viability (Colon cancer organoid [1]; [5])	Cell Viability (Colon cancer organoid [2]; [4])	Cell Viability (Colon cancer organoid [2]; [5])	Cell Viability (Colon cancer organoid [3]; [4])	Cell Viability (Colon cancer organoid [3]; [5])
Cc1ccc(-c2ccc3c(ccc4sc5c(c43)NC[C@@H](C)NC5=O)n2)cn1	100.355%	85.371%	77.4963%	56.184%	154.003%	70.7863%
CCOC(=O)c1c(/C(C#N)=C\N)c2ccc(Cl)c(Cl)c2n1C	122.99%	97.4073%	89.9628%	62.6784%	91.9928%	87.4636%
CCOc1cc(N2CCC(O)CC2)ccc1Nc1ncc2c(n1)N(C)c1ccccc1C(=O)N2C	85.6087%	128.987%	113.616%	107.398%	81.3429%	117.331%
CNc1nc(-c2ccc3c(N)n[nH]c3c2)cc(N2C[C@@H](C(=O)NC3CCCCC3)CC[C@H]2C)n1	59.8926%	53.4401%	65.7783%	53.252%	52.0118%	121.574%
Cc1ccc(NC(=O)Nc2cc(C(F)(F)F)ccc2F)cc1Nc1ccc2c(c1)NC(=O)/C2=C\c1ccc[nH]1	46.1941%	95.0963%	123.441%	77.7474%	98.8429%	67.3177%
OCCn1cc(-c2ccc3c(c2)CCC3=NO)c(-c2ccncc2)n1	81.3359%	109.303%	204.013%	111.094%	203.673%	70.8995%
Nc1ccc(C(=O)Nc2cccc(-c3nc(N4CCOCC4)c4oc5ncccc5c4n3)c2)cn1	78.745%	81.5262%	65.9749%	77.6378%	141.773%	75.1771%
O=C1[C@H](Cc2ccc(O)cc2)N2C(=O)CCN(C(=O)NCc3ccccc3)[C@H]2CN1Cc1cccc2ccccc12	79.2211%	124.216%	38.6094%	83.3915%	90.1159%	144.616%
COc1cc2c(NC3CCN(C(C)C)CC3)nc(N3CCC(F)(F)CC3)nc2cc1OCCCN1CCCC1	88.0521%	104.162%	78.7749%	75.7418%	136.596%	132.743%
CCOC(=O)Nc1cc(-c2ccc(C)c(NS(C)(=O)=O)c2)nn2c(C)nnc12	112.605%	266.102%	91.5211%	161.373%	38.74%	177.965%
COc1ccccc1-c1cc(Nc2cccc(CS(N)(=O)=O)c2)ncn1	105.6%	95.8866%	188.969%	77.1823%	105.142%	97.4583%
COc1ccccc1C(=O)Nc1cc2c(cc1N1CCCC1)n(C)c(=O)n2C	–	–	–	–	114.161%	143.545%
Cc1ccc(C(=O)Nc2cccc(C(F)(F)F)c2)cc1Nc1nc(-c2cccnc2)nc2c1cnn2C	60.2736%	70.9034%	129.491%	76.0508%	143.016%	123.917%
CC1=C(C(=O)Nc2cc3cn[nH]c3cc2F)C(c2ccc(C(F)(F)F)cc2)CC(=O)N1 (configuration not stated)	110.512%	74.1449%	103.838%	118.18%	133.463%	94.2958%
CCOc1cn(-c2ccc(F)cc2C)nc1C(=O)Nc1ccc(Oc2ccnc3cc(OC)c(OC)cc23)c(F)c1	87.51% and 89.4828%	84.5689% and 64.7371%	83.4563% and 72.9507%	89.3323% and 81.5085%	229.393% and 192.525%	78.4446% and 96.4847%
COc1cc(-c2cn(C)c(=O)c3cnccc23)c(OC)cc1CN(C)C	79.252%	108.934%	100.672%	88.7606%	61.6023%	139.676%
CC(C)Oc1ccc(-c2c[nH]cc2CN(C)CCN)cc1	47.5822%	178.793%	53.8658%	109.482%	47.8011%	252.195%

SMILES	Cell Viability (Colon cancer organoid [1]; [4])	Cell Viability (Colon cancer organoid [1]; [5])	Cell Viability (Colon cancer organoid [2]; [4])	Cell Viability (Colon cancer organoid [2]; [5])	Cell Viability (Colon cancer organoid [3]; [4])	Cell Viability (Colon cancer organoid [3]; [5])
CCC(=O)N1CCOc2c(cc(-c3ccc(OC)c(OC)c3)cc2OCC2CCCN(C)C2)C1 (configuration not stated)	113.999%	135.091%	132.169%	110.752%	85.7121%	123.175%
O=C(NCC(=O)N1CCCC1)Nc1ccc2cnccc2c1	80.3687%	124.064%	110.898%	98.9067%	121.558%	100.064%
C=CC(=O)Nc1cccc(C(=O)Nc2ccc(Nc3cc(-c4[nH]c(SC)nc4C)ccn3)cc2)c1	87.3077%	89.5907%	116.406%	116.909%	175.79%	71.728%
Cc1cc2c(cc1N1C(=O)c3cccc4c(CCCO)ccc(c34)C1=O)n(C)c(=O)n2C	83.3962%	164.269%	52.1608%	93.143%	35.202%	231.762%
Cn1cc(CCn2cnc(-c3cnn(C)c3)c2-c2ccc(C#N)cc2)cn1	101.212%	117.261%	93.9691%	90.5921%	163.337%	107.326%
CCN(CC)S(=O)(=O)Nc1cccc(-c2ccc3c(NC(=O)C4CC4)n[nH]c3c2)c1	76.8554%	107.031%	139.261%	96.9304%	76.1767%	136.148%
CC(C)C(=O)Nc1n[nH]c2cc(-c3cccc(NS(=O)(=O)C4CC4)c3)ccc12	78.2505%	111.722%	122.353%	104.553%	85.5363%	102.387%
Clc1cc2c(NC3CCCC3)nnc(-c3ccncc3)c2cc1Cl	131.765%	133.642%	104.198%	96.8835%	149.848%	128.6%
CN1C(=O)c2sccc2N(C)c2nc(Nc3ccc(S(N)(=O)=O)cc3)ncc21	23.972%	57.2364%	48.6334%	48.1427%	35.7299%	84.1947%
CN(C)C(=O)/C(C#N)=C/c1ccc(-c2nc3cnc4[nH]ccc4c3n2C2CCCCC2)o1	57.9428%	82.2998%	107.956%	74.8679%	75.2682%	130.215%
Cl.Cl.NC1(c2ccc(-c3nc4ccn5c(=O)[nH]nc5c4cc3-c3ccccc3)cc2)CCC1	59.9467%	67.7481%	76.882%	55.4067%	44.0229%	145.22%
Cn1cc(-c2ccc3occ(-c4ccccc4-c4ccccc4)c3n2)cn1	43.2566%	104.957%	109.875%	78.5125%	88.7548%	89.3741%
Cn1cc(-c2ccc3occ(-c4cccc(-c5ccncc5)c4)c3n2)cn1	70.7683%	132.305%	87.0505%	83.2978%	65.7439%	132.411%
Cl.O=C([C@@H](Cc1cccc(C(F)(F)F)c1)NS(=O)(=O)c1cc(F)c2c(c1)CCNC2)N1CCCC1	84.043%	115.078%	117.922%	108.808%	153.218%	150.248%
CN(C)C(=O)/C(C#N)=C/c1ccc(-c2nc3cnc4c(ccn4C)c3n2C2CCCCC2)o1	28.6002%	127.582%	110.125%	86.2886%	49.7098%	127.191%
CS(=O)(=O)N1CCN(Cc2cc3nc(-c4cccc5[nH]ncc45)nc(N4CCOCC4)c3s2)CC1 [PICTILISIB]	43.124%	60.0718%	42.7401%	54.6957%	–	–

Source: ChEMBL document CHEMBL5608141, “Identification of compartment-specific drug sensitivities in CRC organoid-stroma co-cultures” (2024)
